Molecular target: T1, EhRho5 (His-EhRho5; EhRacD) (Entamoeba histolytica, UniProt Q24817)
T1 construct: gene RACD; His-tagged (pET28a+), expressed in E. coli BL21(DE3), PCR-amplified full-length gene
Experiment: nucleotide loading, GST-RBD pulldown
Conditions: loaded with 10 mM EDTA; indirect read-out by Rhotekin RBD binding

T1 sequence (C4LV55 entry or part of it): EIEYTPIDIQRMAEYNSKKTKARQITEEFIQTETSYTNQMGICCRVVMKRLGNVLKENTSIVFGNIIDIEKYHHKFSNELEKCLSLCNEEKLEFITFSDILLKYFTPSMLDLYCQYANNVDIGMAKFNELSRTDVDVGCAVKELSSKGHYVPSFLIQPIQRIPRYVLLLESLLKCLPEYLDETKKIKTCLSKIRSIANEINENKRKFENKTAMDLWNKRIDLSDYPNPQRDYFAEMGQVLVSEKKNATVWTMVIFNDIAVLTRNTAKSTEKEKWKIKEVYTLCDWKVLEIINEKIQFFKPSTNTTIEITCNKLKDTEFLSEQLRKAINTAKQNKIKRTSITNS
T1 sequence (Q24817 whole entry): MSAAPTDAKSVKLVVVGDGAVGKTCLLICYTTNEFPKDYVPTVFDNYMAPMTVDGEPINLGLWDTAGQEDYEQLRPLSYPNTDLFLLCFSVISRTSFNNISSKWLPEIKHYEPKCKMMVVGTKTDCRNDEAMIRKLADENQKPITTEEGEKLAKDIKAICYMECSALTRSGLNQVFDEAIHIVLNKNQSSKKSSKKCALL

Nc1nc2c(ncn2[C@@H]2O[C@H](COP(=O)(O)OP(=O)(O)O)[C@@H](O)[C@H]2O)c(=O)[nH]1 [GDP]
nucleotide loading, GST-RBD pulldown: GDP bound inactive EhRho5 from the GMPPNP (GTP analog) bound EhRho5

Nc1nc2c(ncn2[C@@H]2O[C@H](COP(=O)(O)OP(=O)(O)NP(=O)(O)O)[C@@H](O)[C@H]2O)c(=O)[nH]1 [GMPPNP]
nucleotide loading, GST-RBD pulldown: nucleotide bound to His-EhRho5 was exchanged with excess of GMPPNP, a nonhydrolyzable GTP analogue

From paper PMC9173640, “PI Kinase-EhGEF2-EhRho5 axis contributes to LPA stimulated macropinocytosis in Entamoeba histolytica” (PLoS Pathogens, 2022)
